Laboratory results from ChEMBL document CHEMBL1201862, “PubChem BioAssay data set” (2004).
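Method: 48-hour compound exposure of cells in 96-well plates, five concentrations, linear interpolation of endpoints. Abbreviation: GI50, concentration required for 50% inhibition of growth.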 Calls of active or inactive are those of the source. Cut-off read from the data, not from the text of the source: active = GI50 up to about 1.1 µM and inactive = higher.

Experiments:
Assay in all cases: inhibition of tumour cell growth, NCI panel, 48 h
[1] = test system: IGROV-1
[2] = test system: SF-295
[3] = test system: SK-MEL-2
[4] = test system: UACC-62
[5] = test system: TK-10
[6] = test system: HL-60
[7] = test system: PC-3
[8] = test system: COLO 205
[9] = test system: NCI-H23
[10] = test system: ACHN
[11] = test system: RXF 393
[12] = test system: MDA-MB-231
[13] = test system: CCRF-CEM
[14] = test system: LOX IMVI
[15] = test system: T47D
[16] = test system: SK-MEL-28
[17] = test system: SNB-75
[18] = test system: 786-0
[19] = test system: HOP-62
[20] = test system: NCI-H522

## CC(=O)c1ccc(/N=N/c2ccc3nonc3c2N)cc1
[1]
  GI50: > 100 µM (inactive)
[2]
  GI50: 83.4 µM (inactive)
[3]
  GI50: > 100 µM (inactive)
[4]
  GI50: > 100 µM (inactive)
[5]
  GI50: 53.1 µM (inactive)
[6]
  GI50: > 100 µM (inactive)
[7]
  GI50: > 100 µM (inactive)
[8]
  GI50: > 100 µM (inactive)
[9]
  GI50: 26.9 µM (inactive)
[10]
  GI50: > 100 µM (inactive)
[11]
  GI50: > 100 µM (inactive)
[12]
  GI50: > 100 µM (inactive)
[13]
  GI50: > 100 µM (inactive)
[14]
  GI50: > 100 µM (inactive)
[15]
  GI50: > 100 µM (inactive)
[16]
  GI50: > 100 µM (inactive)
[17]
  GI50: 94.4 µM (inactive)
[18]
  GI50: > 100 µM (inactive)
[19]
  GI50: > 100 µM (inactive)

## COc1cccc(C2c3cc4c(cc3OC(N3CCCCC3)C2C)OCO4)c1OC (stereo not drawn)
[1]
  GI50: 5.16 µM (inactive)
[2]
  GI50: 4.27 µM (inactive)
[3]
  GI50: 5.96 µM (inactive)
[4]
  GI50: 12.9 µM (inactive)
[5]
  GI50: 16.5 µM (inactive)
[7]
  GI50: 5.58 µM (inactive)
[8]
  GI50: 7.64 µM (inactive)
[9]
  GI50: 14.3 µM (inactive)
[10]
  GI50: 3.19 µM (inactive)
[11]
  GI50: 4.08 µM (inactive)
[12]
  GI50: 14.3 µM (inactive)
[20]
  GI50: 5.21 µM (inactive)
[13]
  GI50: 3.46 µM (inactive)
[14]
  GI50: 4.85 µM (inactive)
[15]
  GI50: 4.1 µM (inactive)
[16]
  GI50: 16.3 µM (inactive)
[17]
  GI50: 5.52 µM (inactive)
[18]
  GI50: 72.1 µM (inactive)
[19]
  GI50: 17.9 µM (inactive)

## COC(=O)C1=COC(C)C2C[n+]3ccc4c([nH]c5ccccc54)c3CC12 (stereo not drawn)
[1]
  GI50: 49.1 µM (inactive)
[2]
  GI50: > 100 µM (inactive)
[3]
  GI50: > 100 µM (inactive)
[4]
  GI50: > 100 µM (inactive)
[5]
  GI50: > 100 µM (inactive)
[6]
  GI50: > 100 µM (inactive)
[7]
  GI50: > 100 µM (inactive)
[8]
  GI50: > 100 µM (inactive)
[9]
  GI50: > 100 µM (inactive)
[10]
  GI50: > 100 µM (inactive)
[12]
  GI50: > 100 µM (inactive)
[20]
  GI50: 54.5 µM (inactive)
[13]
  GI50: > 100 µM (inactive)
[14]
  GI50: > 100 µM (inactive)
[15]
  GI50: 36.6 µM (inactive)
[16]
  GI50: > 100 µM (inactive)
[17]
  GI50: > 100 µM (inactive)
[18]
  GI50: > 100 µM (inactive)
[19]
  GI50: > 100 µM (inactive)

## C=C1C(=O)C23CC1CCC2C12CO[C@H](O)[C@H]1C(C)(C)[C@H](OC(C)=O)C[C@H]2OC3=O (stereo partly drawn)
[1]
  GI50: 31.9 µM (inactive)
[2]
  GI50: > 100 µM (inactive)
[3]
  GI50: 15.3 µM (inactive)
[4]
  GI50: 15 µM (inactive)
[5]
  GI50: 14.3 µM (inactive)
[6]
  GI50: 16.6 µM (inactive)
[7]
  GI50: > 100 µM (inactive)
[8]
  GI50: 15.1 µM (inactive)
[9]
  GI50: 27.7 µM (inactive)
[10]
  GI50: 15.9 µM (inactive)
[12]
  GI50: 19.8 µM (inactive)
[20]
  GI50: 1.26 µM (inactive)
[13]
  GI50: 6.14 µM (inactive)
[14]
  GI50: 18.1 µM (inactive)
[15]
  GI50: 19.7 µM (inactive)
[16]
  GI50: 17.1 µM (inactive)
[17]
  GI50: 46.2 µM (inactive)
[18]
  GI50: 16 µM (inactive)

## COC(=O)Nc1nc2cc(C(=O)c3cccs3)ccc2[nH]1 [NOCODAZOLE]
[1]
  GI50: 0.0242 µM (active)
[2]
  GI50: 0.0128 µM (active)
[3]
  GI50: < 0.0193 µM (active)
[4]
  GI50: 0.0184 µM (active)
[5]
  GI50: 2.95 µM (inactive)
[6]
  GI50: 0.0113 µM (active)
[7]
  GI50: 0.0141 µM (active)
[8]
  GI50: 0.0194 µM (active)
[9]
  GI50: 0.0168 µM (active)
[10]
  GI50: 0.225 µM (active)
[11]
  GI50: 0.0134 µM (active)
[12]
  GI50: 0.171 µM (active)
[13]
  GI50: 0.0145 µM (active)
[14]
  GI50: 0.0214 µM (active)
[15]
  GI50: > 80.9 µM (inactive)
[16]
  GI50: 0.0957 µM (active)
[18]
  GI50: 0.0789 µM (active)
[19]
  GI50: 0.0287 µM (active)
